Assay results from US20240173419A1, “CDK2 DEGRADERS AND USES THEREOF” (Kymera Therapeutics, Inc., priority 2022, published 2024).

Molecular target: T1, CDK2 (Homo sapiens, UniProt P24941)
T1 construct: endogenous in cells; host or cells: MKN1 cells
Experiment: CDK2 degradation in MKN1 cells (AlphaLISA)
Format: cell-based
Conditions: 14 h incubation; for DC50: read-out: CDK2 degradation 14 h: Mean external-Abs DC50
In short: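 MKN1 cells (2e4/well) treated 14 h at 37° C with 11-point 1:5 dilutions (0.001 nM-10 μM, 0.1% DMSO). CDK2 in lysates quantified by AlphaLISA, no-cell background subtracted; DC50 from four-parameter logistic fit.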

| SMILES | CDK2 degradation 14 h: Average Dmax % | DC50 [µM] |
| --- | --- | --- |
| Cc1cc(S(=O)(=O)NC2CC(N3CCN(CC4CCN(c5cccc6c5n(C)c(=O)n6C5CCC(=O)NC5=O)CC4)CC3)C2)ccc1Nc1ncc(C(F)(F)F)c(N2CCCC(C)(O)C2)n1 (centres unmarked) [I-834] | A (A (>75% o)) | < 0.1 |
| Cc1cc(S(=O)(=O)C2CC3(CCN(CC4CCN(c5ccc6c(c5F)n(C)c(=O)n6C5CCC(=O)NC5=O)CC4)CC3)C2)ccc1Nc1nc(N2CCCC(C)(O)C2)c2c(ccn2C)n1 (centres unmarked) [I-835] | D (D (<25%)) | > 1 |
| Cc1cc(S(=O)(=O)N2CC3(CCN(CC4CCN(c5ccc6c(c5F)n(C)c(=O)n6C5CCC(=O)NC5=O)CC4)CC3(F)F)C2)ccc1Nc1ncc2ccc(=O)n(C3CCCC3)c2n1 (centres unmarked) [I-836] | B (B (>50% -75%)) | 0.1 to 0.5 |
| Cc1cc(S(=O)(=O)C2CC3(CCN(CC4CCN(c5ccc6c(c5F)n(C)c(=O)n6C5CCC(=O)NC5=O)CC4)CC3)C2)ccc1Nc1ncc2cc(Cl)c(=O)n(C(C)C(C)(C)O)c2n1 (centres unmarked) [I-837] | D (D (<25%)) | > 1 |
| Cc1cc(S(=O)(=O)C2CC3(CCN(CC4CCN(c5cccc6c5n(C)c(=O)n6C5CCC(=O)NC5=O)CC4)CC3)C2)ccc1Nc1ncc2cc(Cl)c(=O)n(C(C)C(C)(C)O)c2n1 (centres unmarked) [I-838] | D (D (<25%)) | > 1 |
| Cc1cc(S(=O)(=O)C2CC3(CCN(CC4CCN(c5ccc6c(c5F)n(C)c(=O)n6C5CCC(=O)NC5=O)CC4)CC3)C2)ccc1Nc1ncc(C2CC2)c(N2CCCC(C)(O)C2)n1 (centres unmarked) [I-839] | D (D (<25%)) | > 1 |
| Cc1cc(S(=O)(=O)C2CC3(CCN(CC4CCN(c5ccc6c(c5F)n(C)c(=O)n6C5CCC(=O)NC5=O)CC4)CC3)C2)ccc1Nc1ncc(C(F)(F)F)c(N2CCC(C(C)(C)O)C2)n1 (centres unmarked) [I-840] | B (B (>50% -75%)) | < 0.1 |
| Cc1cc(S(=O)(=O)C2CC3(CCN(CC4CCN(c5cccc6c5n(C)c(=O)n6C5CCC(=O)NC5=O)CC4)CC3)C2)ccc1Nc1ncc(C(F)(F)F)c(N2CCC(C(C)(C)O)C2)n1 (centres unmarked) [I-841] | A (A (>75% o)) | < 0.1 |
| Cc1cc(S(=O)(=O)C2CC3(CCN(CC4CCN(c5cccc6c5n(C)c(=O)n6C5CCC(=O)NC5=O)CC4)CC3)C2)ccc1Nc1ncc(C(F)(F)F)c(N2CCC(C(C)(C)O)C2)n1 (centres unmarked) [I-842] | A (A (>75% o)) | < 0.1 |
| Cc1cc(S(=O)(=O)NC(C)COC2CCC(CN3CCN(c4ccc5c(c4F)n(C)c(=O)n5C4CCC(=O)NC4=O)CC3)CC2)ccc1Nc1ncc2cc(Cl)c(=O)n(C(C)C(C)(C)O)c2n1 (centres unmarked) [I-843] | D (D (<25%)) | > 1 |
| Cc1cc(S(=O)(=O)NC(C)COC2CCC(CN3CCN(c4ccc5c(c4F)n(C)c(=O)n5C4CCC(=O)NC4=O)CC3)CC2)ccc1Nc1ncc(C(F)(F)F)c(N2CCCC(C)(O)C2)n1 (centres unmarked) [I-844] | A (A (>75% o)) | < 0.1 |
| Cc1cc(S(=O)(=O)NC(C)COC2CCC(CN3CCN(c4ccc5c(c4F)n(C)c(=O)n5C4CCC(=O)NC4=O)CC3)CC2)ccc1Nc1ncc(C(F)(F)F)c(C2CCC(C)(O)CC2)n1 (centres unmarked) [I-845] | B (B (>50% -75%)) | 0.1 to 0.5 |
| Cc1cc(S(=O)(=O)NC(C)COC2CCC(CN3CCN(c4ccc5c(c4F)n(C)c(=O)n5C4CCC(=O)NC4=O)CC3)CC2)ccc1Nc1ncc(C(F)(F)F)c(N2CCCC(C)(O)C2)n1 (centres unmarked) [I-846] | A (A (>75% o)) | < 0.1 |
| Cc1cc(S(=O)(=O)NC2CC(N3CCN(CC4CN(c5cccc6c5n(C)c(=O)n6C5CCC(=O)NC5=O)C4)CC3)C2)ccc1Nc1ncc(C(F)(F)F)c(C2CCC(C)(O)CC2)n1 (centres unmarked) [I-847] | A (A (>75% o)) | < 0.1 |
| Cc1cc(S(=O)(=O)NC(C)COC2CCC(CN3CC(c4ccc5c(c4F)n(C)c(=O)n5C4CCC(=O)NC4=O)C3)CC2)ccc1Nc1ncc(C(F)(F)F)c(N2CCCC(C)(O)C2)n1 (centres unmarked) [I-848] | A (A (>75% o)) | < 0.1 |
| Cc1cc(S(=O)(=O)C2CC3(CCN(CC4CCN(c5ccc6c(c5F)n(C)c(=O)n6C5CCC(=O)NC5=O)CC4)CC3)C2)ccc1Nc1ncc(C(F)(F)F)c(N2CCC(C)C(C)(O)C2)n1 (centres unmarked) [I-849] | B (B (>50% -75%)) | < 0.1 |
| Cc1cc(S(=O)(=O)NC(C)COC2CCC(CN3CC(c4cccc5c4n(C)c(=O)n5C4CCC(=O)NC4=O)C3)CC2)ccc1Nc1ncc(C(F)(F)F)c(N2CCCC(C)(O)C2)n1 (centres unmarked) [I-850] | B (B (>50% -75%)) | < 0.1 |
| Cc1cc(S(=O)(=O)NC(C)COC2CCC(CN3CCN(c4cccc5c4n(C)c(=O)n5C4CCC(=O)NC4=O)CC3)CC2)ccc1Nc1ncc(C(F)(F)F)c(N2CCCC(C)(O)C2)n1 (centres unmarked) [I-851] | A (A (>75% o)) | < 0.1 |
| Cc1cc(S(=O)(=O)C2CC3(CCN(CCOC4CN(c5ccc6c(c5F)n(C)c(=O)n6C5CCC(=O)NC5=O)C4)CC3)C2)ccc1Nc1ncc(C(F)(F)F)c(N2CCCC(C)(O)C2)n1 (centres unmarked) [I-853] | B (B (>50% -75%)) | 0.1 to 0.5 |
| Cc1cc(S(=O)(=O)C2CC3(CCN(CCOC4CN(c5cccc6c5n(C)c(=O)n6C5CCC(=O)NC5=O)C4)CC3)C2)ccc1Nc1ncc(C(F)(F)F)c(N2CCCC(C)(O)C2)n1 (centres unmarked) [I-854] | B (B (>50% -75%)) | 0.1 to 0.5 |
| Cn1c(=O)n(C2CCC(=O)NC2=O)c2ccc(N3CCC(CN4CCC5(CC4)CC(S(=O)(=O)c4ccc(Nc6ncc(C(F)(F)F)c(N7CCCC(C)(O)C7)n6)c(Cl)c4)C5)CC3)c(F)c21 (centres unmarked) [I-855] | B (B (>50% -75%)) | < 0.1 |
| COCc1cnc(Nc2ccc(S(=O)(=O)C3CC4(CCN(CC5CCN(c6ccc7c(c6F)n(C)c(=O)n7C6CCC(=O)NC6=O)CC5)CC4)C3)cc2C)nc1N1CCCC(C)(O)C1 (centres unmarked) [I-856] | D (D (<25%)) | > 1 |
| Cc1cc(S(=O)(=O)NC(C)COC2CCC(CN3CCN(c4ccc5c(c4F)n(C)c(=O)n5C4CCC(=O)NC4=O)CC3)CC2)ccc1Nc1ncc(C(F)(F)F)c(N2CCC(C(C)(C)O)C2)n1 (centres unmarked) [I-857] | A (A (>75% o)) | < 0.1 |
| Cc1cc(S(=O)(=O)NC(C)COC2CCC(CN3CCN(c4ccc5c(c4F)n(C)c(=O)n5C4CCC(=O)NC4=O)CC3)CC2)ccc1Nc1ncc(C(F)(F)F)c(N2CCC(C(C)(C)O)C2)n1 (centres unmarked) [I-858] | A (A (>75% o)) | < 0.1 |
| Cc1cc(S(=O)(=O)NC2CCN(CC3(C)CN(c4ccc(C5CCC(=O)NC5=O)c(Cl)c4)C3)CC2)ccc1Nc1ncc(C(F)(F)F)c(N2CCC[C@](C)(O)C2)n1 (some centres unmarked) [I-910] | B (B (>50% -75%)) | 0.1 to 0.5 |
| Cc1cc(S(=O)(=O)NC2CC3(C2)CN(CC2CN(c4ccc(C5CCC(=O)NC5=O)c(Cl)c4)C2)C3)ccc1Nc1ncc(C(F)(F)F)c(N2CCCC(C)(O)C2)n1 (centres unmarked) [I-928] | A (A (>75% o)) | < 0.1 |
| Cc1cc(S(=O)(=O)NC2CCC(CN3CCN(c4cccc(C5CCC(=O)NC5=O)c4)CC3)CC2)ccc1Nc1ncc(C(F)(F)F)c(N2CCCC(C)(O)C2)n1 (centres unmarked) [I-929] | C (C (>25% -50%)) | > 1 |
| Cc1cc(S(=O)(=O)NC2CCC(N3CCN(c4ccc(C5CCC(=O)NC5=O)c(Cl)c4)CC3)CC2)ccc1Nc1ncc(C(F)(F)F)c(N2CCCC(C)(O)C2)n1 (centres unmarked) [I-930] | A (A (>75% o)) | < 0.1 |
